From PMC10004195, “Novel Dual-Target Kinase Inhibitors of EGFR and ALK Were Designed, Synthesized, and Induced Cell Apoptosis in Non-Small Cell Lung Cancer” (Molecules, 2023)

Experiments:
[1] = test system: HK2 (human kidney proximal convoluted tubule epithelial cells); assay: Cytotoxicity test on nontumorigenic cells, HK2; assay type: cell-based
From the text: (§1) It is critical to evaluate the balance between the safety and efficacy of drugs for the development of new drugs; thus, we then conducted a cytotoxicity test on […] types of nontumorigenic cell lines from different origins, including LO2 (human normal liver cells), HK2 (human kidney proximal convoluted tubule epithelial cells), HLF (human embryonic lung fibroblast), 293A (human embryonic kidney cells), and HUVEC (human umbilical vein endothelial cells). […] In addition, we evaluated the compound’s safety in vivo by performing acute toxicity tests in mice, and 9j was injected intravenously at concentrations of 100 mg/kg, 150 mg/kg, and 300 mg/kg.
(§2) A total of 7000 cells per well were seeded in a 96-well plate with at least three technical replicates; then, exposed to different concentrations (10, 5, 1, 0.1, 0.05, 0.01 uM) of the test compounds for 72 h. After the treatment, CCK8 (Sigma, St. Louis, MO, USA) was added to each well under sterile conditions (to a final concentration of 10% of the total volume) and the plates were incubated for 2–4 h at 37 °C. Absorbance was measured at 450 nm in a microplate reader.

mice = assay: Acute toxicity test in mice; settings: injected intravenously, 100, 150 and 300 mg/kg (Figure S1)
From the text: as §1

[2] = test system: LO2 (human normal liver cells); assay: Cytotoxicity test on nontumorigenic cells, LO2; assay type: cell-based
From the text: as §1, §2

H522 cells = assay: CCK8 antiproliferative assay, H522 cells; assay type: cell-based; settings: Homo sapiens, NCI-H522, 72 h
From the text: The human cancer cell lines (H1975, H2228) used in this study were purchased from the Guangzhou ginny ou biotechnology Co., Ltd. (Guangzhou, China). The human cancer cell lines (NCI-H522) used in this study were purchased from the Shenzhen Haodi Huatuo Biotechnology Co., LTD (Shenzhen, China). The human cancer cell lines (LOVO, HLF, BJ, LO2) used in this study were purchased from the Laboratory Animal Service Center at Sun Yat-sen University (Guangzhou, China). Cell lines were cultivated in 1640 containing 10% (v/v) heat-inactivated fetal bovine serum (FBS), 100 units/mL penicillin, and 100 μg/mL streptomycin. Cell lines LOVO, HLF, BJ, and LO2 were cultivated in DMEM containing 10% (v/v) heat-inactivated fetal bovine serum (FBS), 100 units/mL penicillin, and 100 μg/mL streptomycin.

[3] = test system: HLF (human embryonic lung fibroblast); assay: Cytotoxicity test on nontumorigenic cells, HLF; assay type: cell-based
From the text: as §1, §2

[4] = test system: phosphorylated EGFR (p-EGFR); assay: Immunofluorescence assay of phosphorylated EGFR; assay type: cell-based, human; settings: fluorescence assay, treatment for 2 to 4 h
Procedure: (§3) Four kinases (EGFR, EGFR^L858R/T790M, ALK, and EML4-ALK) were tested using an ELISA assay. […] There was no effect on the wild-type EGFR or ALK kinases triggered by the compound. Consequently, the selection of the compound was good as both compounds balanced IC50 against EGFR and ALK, respectively. […] Following that, fluorescence assays were used to measure the phosphorylation of the EGFR and ALK protein affect with compound 9j at the cellular level. […] Next, WB assay was used to test the protein expression of H1975 and H2228 cells at the concentration of 5, 10, and 100 nM.
(§4) Figure 2 (A) The activity of compound 9j against four kinases (EGFR, ALK, EGFR ^L858R T790M, and EML4-ALK). (B) H1975 and H2228 cells were treated with 9j for 2–4 h; the staining for phosphorylated EGFR (p-EGFR) and phosphorylated ALK (p-ALK) was shown as red fluorescence. (C) WB analysis of phosphorylated proteins in drug-treated H1975 and H2228 cells.

[5] = test system: phosphorylated ALK (p-ALK); assay: Immunofluorescence assay of phosphorylated ALK; assay type: cell-based, human; settings: fluorescence assay, treatment for 2 to 4 h
Procedure: as §3, §4

p-EGFR = assay: Western blot, p-EGFR; assay type: cell-based, human; settings: WB, 5, 10 and 100 nM, 3 h treatment
Procedure: as §3
(§5) H1975 (H2228) cells seeded in 60 mm dishes at a density of 5 × 10^5 cells/well were incubated with or without compound 9j (0, 5, 10, 100 nM) for 2–4 h. After treatment, cells were stained as previously described.

p-ERK = assay: Western blot, p-ERK; assay type: cell-based, human; settings: WB, 5, 10 and 100 nM, 3 h treatment
Procedure: as §3, §5

p-ALK = assay: Western blot, p-ALK; assay type: cell-based, human; settings: WB, 5, 10 and 100 nM, 3 h treatment
Procedure: as §3, §5

C=CC(=O)Nc1cc(Nc2ncc(Cl)c(Nc3ccc(Cl)cc3[S+]([O-])C(C)C)n2)c(OC)cc1C1CCN(C)CC1 (stereo not shown) [9j, N-(5-((5-Chloro-4-((4-chloro-2-(isopropylsulfinyl)phenyl)amino)pyrimidin-2-yl)amino)-4-methoxy-2-(1-methylpiperidin-4-yl)phenyl)acrylamide]
Selectivity Ratio (IC50 human normal cells)/(IC50 H1975), HK2 ([1]; HK2 vs H1975): 329.6
IC50 ([1]; Homo sapiens, Epithelial cell, HK2, mean ± SE, read-out: Toxicity to normal cells, IC50 HK2): 25.71 ± 0.08 µM
HE staining of lung and heart tissues (mice): did not indicate toxicity
IC50 ([2]; Homo sapiens, LO2, mean ± SE, read-out: Toxicity to normal cells, IC50 LO2): 23.96 ± 0.03 µM
Selectivity Ratio (IC50 human normal cells)/(IC50 H1975), LO2 ([2]; LO2 vs H1975): 306.1
IC50 (H522 cells): > 10 µM
Selectivity Ratio (IC50 human normal cells)/(IC50 H1975), HLF ([3]; HLF vs H1975): 357.3
IC50 ([3]; Homo sapiens, Fibroblast, HLF, mean ± SE, read-out: Toxicity to normal cells, IC50 HLF): 27.87 ± 0.01 µM
expression level of phosphorylated EGFR protein [4]: decreased significantly
expression level of phosphorylated ALK protein [5]: decreased significantly
expression of p-EGFR (p-EGFR): inhibited
expression of p-ERK (p-ERK): inhibited
expression of p-ALK (p-ALK): inhibited
